Measured values published in patent US20190049436A1, “MODULATION OF ASYMMETRIC PROLIFERATION” (THE GENERAL HOSPITAL CORPORATION, priority 2012, published 2019).
“Also recorded” adds a separate entry of the source. Where a SMILES comes first, the peptide text is derived from it. The star is where a group is joined. Cbz = O=C(OCc1ccccc1)*

Columns and labels:
MCF7 cells [1] = assay: Confocal immunofluorescence scoring of asymmetrically dividing and G0-like (H3K9me2low/MCM2low/HES1high) cells; assay type: cell-based, human; settings: for frequency of asymmetrically dividing and G0-like cells / frequency of G0-like cells: MCF7; for frequency of asymmetrically dividing and G0-like cells: small molecule for 72 h at the single dose (low, non-antiproliferative or target-suppressing), vs DMSO control; for production of G0-like cells: wild-type MCF7, target-suppressing doses, 72 hours or 144 hours; for frequency of G0-like cells: proteasome inhibitor for 24 h (Bortezomib 4 μM, MG-132 10 μM), doses that do not affect overall cell proliferation
Description: (§1) Drug treatment in vitro. Cells were seeded onto collagen IV-coated coverslips, allowed to attach overnight, and treated with vehicle (DMSO) or AKT1/2 inhibitor (HCT116: 20μM; MCF7: 2 μM) (Sigma), MK2206 (HCT116: 10 μM; MCF7: 3 μM) (Selleck Chemicals), TORIN1 (HCT116: 0.5 μM; MCF7: 0.25 μM) (Tocris Bioscience), AZD8055 (HCT116: 0.7 μM; MCF7: 0.1 μM) (Selleck Chemicals), INK128 (HCT116: 0.05 μM; MCF7: 0.01 μM) (Active Biochem), Palomid 529 (HCT116: 10 μM; MCF7: 20 μM) (Selleck Chemicals), (Rapamycin (HCT116: 20 μM; MCF7: 20 μM)(Sigma), RAD-001 (HCT116: 10 μM; MCF7: 5 μM) (Selleck Chemicals), (AZD5363 (HCT116: 50 μM; MCF7: 5 μM) (Active Biochem), GDC0068 (HCT116: 50 μM; MCF7: 5 μM) (Active Biochem) for 72 h and Bortezemib (HCT116: 1 μM; MCF7: 4 μM) (Selleck Chemicals) MG-132 (vehicle: ethanol) (HCT116: 1 μM; MCF7: 10 μM), for 24 h.
(§2) Immunofluorescence staining. For bulk populations and for colonies, cells were grown directly on collagen IV-coated coverslips (Sigma). Cells were fixed in 3.7% formalin, permeabilized using 0.1% Triton X-100, and treated with 0.1% SDS. They were blocked in 1% BSA and then incubated with primary antibody (α-H3K9me2 (Abcam); α-MCM2 and α-Tubulin (Cell Signaling), α-Hes1 and α-TTC3 (Abnova)) diluted in blocking solution, washed, and incubated with the respective secondary antibody. Cells were mounted using hard-set mounting media containing DAPI (Vector Laboratories). All secondary antibodies were Alexa Fluor conjugates (488, 555, 568, 633, and 647) (Invitrogen). Immunofluorescence imaging (on a Nikon Eclipse Ti A1R-A1 confocal microscope) and live-cell imaging (on the Nikon Biostation CT platform) were performed as previously described (1).
(§3) Drug treatment in vitro. Cells were seeded onto collagen IV-coated coverslips, allowed to attach overnight, and treated with vehicle (DMSO) or AKT1/2 inhibitor (HCT116: 20 μM; MCF7: 2 μM) (Sigma), MK2206 (HCT116: 10 μM; MCF7: 3 μM) (Selleck Chemicals), TORIN1 (HCT116: 0.5 μM; MCF7: 0.25 μM) (Tocris Bioscience), AZD8055 (HCT116: 0.7 μM; MCF7: 0.1 μM) (Selleck Chemicals), INK128 (HCT116: 0.05 μM; MCF7: 0.01 μM) (Active Biochem), Palomid 529 (HCT116: 10 μM; MCF7: 20 μM) (Selleck Chemicals), (Rapamycin (HCT116: 20 μM; MCF7: 20 μM)(Sigma), RAD-001 (HCT116: 10 μM; MCF7: 5 μM) (Selleck Chemicals), BKM-120 (HCT116: 1.5 μM; MCF7: 0.5 μM) (Active Biochem), FAK inhibitors (PF-562271: 1 μM Pfizer) and NVP-TAE226 : 1 μM (Novartis), for both cell lines) for 72 h and Bortezemib (HCT116: 1 μM; MCF7: 4 μM) (Selleck Chemicals) MG-132 (vehicle: ethanol) (HCT116: 1 μM; MCF7: 10 μM), for 24 h.
as §2, with “(a-H3K9me2” for “(α-H3K9me2”, “A1R-A1™” for “A1R-A1”, “described7. Slides coated with Type-I collagen (control) and AlignCol™ woven with large collagen fibers (100-200 nm) (Advanced Biomatrix) were incubated for 1 hour in 70% ethanol and then washed with PBS. Cells were then plated on the slides and processed for immunofluorescence.” for “described (1).”
(§4) Antibody activation and inhibition. […]

HCT116 cells [2] = assay: as above; assay type: cell-based, human; settings: for frequency of asymmetrically dividing and G0-like cells / frequency of G0-like cells: HCT116; for frequency of asymmetrically dividing and G0-like cells: small molecule for 72 h at the single dose (low, non-antiproliferative or target-suppressing), vs DMSO control; for production of G0-like cells: wild-type HCT116, target-suppressing doses, 72 hours or 144 hours; for frequency of G0-like cells: proteasome inhibitor 1 μM for 24 h, doses that do not affect overall cell proliferation
Description: as §1, §2, §3
as §2, with “(a-H3K9me2” for “(α-H3K9me2”, “A1R-A1™” for “A1R-A1”, “described7. Slides coated with Type-I collagen (control) and AlignCol™ woven with large collagen fibers (100-200 nm) (Advanced Biomatrix) were incubated for 1 hour in 70% ethanol and then washed with PBS. Cells were then plated on the slides and processed for immunofluorescence.” for “described (1).”
as §4

MCF7 cells [3] = assay: Tumor formation in nude mice by cells pre-treated ex vivo with AKT1/2 inhibitor
Description: (§5) Xenografting & tumor propagation in vivo. For in vivo RICTOR knockdown experiments, 5×10^5 cells (MCF7, HCT116, A375, PC9, MDA-MB-231 cell lines) carrying either doxycycline-inducible non-silencing or RICTOR-targeting shRNAs (120392, 225915) were injected subcutaneously into the flanks of 5-6 week old, female nude mice. The mice were given doxycycline in water at 20 mg/ml for hairpin induction. For induction of asymmetrically dividing cells and slow proliferators, cells were treated with AKT1/2 inhibitor and DMSO (vehicle) for 72 h and were harvested at 60-70% confluence, and then counted and washed twice in PBS and resuspended in 1:1 Media: Matrigel (BD Biosciences). 5×10^6, 5×10^5, 5×10^4, 5×10^3 and 5×10^2 cells respectively were injected subcutaneously into the flanks of 5-6 week old, female nude mice (Nude/Nude) (Charles River Labs). For all experiments, growing tumors were measured weekly by caliper, and mice were killed after the tumor size reached 1 cm^3. Mouse experiments were carried out under a Massachusetts General Hospital Institutional Review Board-approved protocol.
(§6) Tumor studies in vivo. For TS2/16 antibody treatment studies in vivo, we injected 5×10^5 cells (A375, MDA-MB-231, PC9, HCT116, MCF7) subcutaneously into the flanks of 5-6 week old, female nude mice (Nude/Nude) (Charles River Labs). Once the tumors were palpable, mice were injected i.p. with TS2/16 ([…] at 4 mg/ml/wk×5 weeks) and the tumors were measured. For RICTOR knockdown experiments in vivo, we injected 5×10^5 cells (A375, MDA-MB-231, PC9, HCT116, MCF7) carrying either doxycycline-inducible non-silencing or RICTOR-targeting shRNAs (120392, 225915) subcutaneously into the flanks of 5-6 week old, female nude mice (Nude/Nude). The mice were given doxycycline in water at 20 mg/ml for hairpin induction starting immediately after implantation. For induction of slow proliferators, cells were treated with AKT1/2 inhibitor and DMSO (vehicle) for 72 h and were harvested at 60-70% confluence, and then counted and washed twice in PBS and resuspended in 1:1 Media: Matrigel (BD Biosciences). We then injected 5×106, 5×105, and 5×10^4 cells respectively subcutaneously into the flanks of 5-6 week old, female nude mice. For all experiments, growing tumors were measured weekly by caliper, and mice were killed when tumors reached approximately 1 cm3 in size. Animal experiments were carried out under a Massachusetts General Hospital Institutional Review Board-approved protocol.

HCT116 cells [4] = assay: as above
Description: as §5, §6

cancer cells = settings: cited from earlier work

O=c1[nH]c2ccccc2n1C1CCN(Cc2ccc(-c3nc4cc5[nH]cnc5cc4nc3-c3ccccc3)cc2)CC1 [AKT1/2]
frequency of asymmetrically dividing and G0-like cells (MCF7 cells [1]): dramatically increases | frequency of asymmetrically dividing and G0-like cells (HCT116 cells [2]): dramatically increases | tumor size, larger on average than tumors from untreated cell populations (MCF7 cells [3]; MCF7 pre-treated 72 h, implanted in nude mice): 50% | engraftment (MCF7 cells [3]; MCF7 pre-treated 72 h with low dose, implanted s.c. in nude mice over a range of cell numbers, vs DMSO-treated cells): significantly increased; also recorded: significantly promoted | tumor size over time (MCF7 cells [3]; MCF7 pre-treated with low dose ex vivo, s.c. in nude mice, 100-fold cell number range): notably larger | tumor size, larger on average than tumors from untreated cell populations (HCT116 cells [4]; HCT116 pre-treated 72 h, implanted in nude mice): 50% | engraftment (HCT116 cells [4]; HCT116 pre-treated 72 h with low dose, implanted s.c. in nude mice over a range of cell numbers, vs DMSO-treated cells): significantly increased; also recorded: significantly promoted | tumor size over time (HCT116 cells [4]; HCT116 pre-treated with low dose ex vivo, s.c. in nude mice, 100-fold cell number range): notably larger | effect on cancer cells at higher doses (cancer cells): kills cancer cells

COc1ccc(-c2ccc3c(N4CCOC[C@@H]4C)nc(N4CCOC[C@@H]4C)nc3n2)cc1CO [AZD8055]
frequency of asymmetrically dividing and G0-like cells (MCF7 cells [1]): significantly reduced | frequency of asymmetrically dividing and G0-like cells (HCT116 cells [2]): significantly reduced

Nc1cc(C(F)(F)F)c(-c2cc(N3CCOCC3)nc(N3CCOCC3)n2)cn1 [BKM-120]
frequency of asymmetrically dividing and G0-like cells (MCF7 cells [1]): not suppressed | production of G0-like cells (MCF7 cells [1]): not suppressed | frequency of asymmetrically dividing and G0-like cells (HCT116 cells [2]): not suppressed | production of G0-like cells (HCT116 cells [2]): not suppressed

CC(C)C[C@H](NC(=O)[C@H](Cc1ccccc1)NC(=O)c1cnccn1)B(O)O [Bortezomib]
frequency of G0-like cells (MCF7 cells [1]): significantly reduced | frequency of G0-like cells (MCF7 cells [1]; listed as bortezomib): reduced | frequency of G0-like cells (HCT116 cells [2]): significantly reduced | frequency of G0-like cells (HCT116 cells [2]; listed as bortezomib): reduced

CC(C)NC[C@@H](C(=O)N1CCN(c2ncnc3c2[C@H](C)C[C@H]3O)CC1)c1ccc(Cl)cc1 [GDC0068]
frequency of asymmetrically dividing and G0-like cells (MCF7 cells [1]): did not reduce | frequency of asymmetrically dividing and G0-like cells (HCT116 cells [2]): did not reduce

CC(C)n1nc(-c2ccc3oc(N)nc3c2)c2c(N)ncnc21 [INK-128]
frequency of asymmetrically dividing and G0-like cells (MCF7 cells [1]): significantly reduced | frequency of asymmetrically dividing and G0-like cells (HCT116 cells [2]): significantly reduced

CC(C)C[C@@H](C=O)NC(=O)[C@H](CC(C)C)NC(=O)[C@H](CC(C)C)NC(=O)OCc1ccccc1 [MG-132] (Cbz-Leu-Leu-Leu-aldehyde)
frequency of G0-like cells (MCF7 cells [1]): significantly reduced | frequency of G0-like cells (HCT116 cells [2]): significantly reduced

NC1(c2ccc(-c3nc4ccn5c(=O)[nH]nc5c4cc3-c3ccccc3)cc2)CCC1 [MK2206]
frequency of asymmetrically dividing and G0-like cells (MCF7 cells [1]): dramatically increases | frequency of asymmetrically dividing and G0-like cells (HCT116 cells [2]): dramatically increases

CNC(=O)c1ccccc1Nc1nc(Nc2ccc(N3CCOCC3)cc2OC)ncc1Cl [NVP-TAE226]
frequency of asymmetrically dividing and G0-like cells (MCF7 cells [1]): increased | frequency of asymmetrically dividing and G0-like cells (HCT116 cells [2]): increased

CN(c1ncccc1CNc1nc(Nc2ccc3c(c2)CC(=O)N3)ncc1C(F)(F)F)S(C)(=O)=O [PF-562271]
frequency of asymmetrically dividing and G0-like cells (MCF7 cells [1]): increased | frequency of asymmetrically dividing and G0-like cells (HCT116 cells [2]): increased

COc1ccc(COc2cc3oc(=O)c4cc(C(C)O)ccc4c3cc2OC)cc1 (centres unmarked) [Palomid-529]
frequency of asymmetrically dividing and G0-like cells (MCF7 cells [1]): significantly reduced | frequency of asymmetrically dividing and G0-like cells (HCT116 cells [2]): significantly reduced

CO[C@H]1C[C@@H]2CC[C@@H](C)[C@@](O)(O2)C(=O)C(=O)N2CCCC[C@H]2C(=O)O[C@H]([C@H](C)C[C@@H]2CC[C@@H](OCCO)[C@H](OC)C2)CC(=O)[C@H](C)/C=C(\C)[C@@H](O)[C@@H](OC)C(=O)[C@H](C)C[C@H](C)/C=C/C=C/C=C/1C [RAD-001]
frequency of asymmetrically dividing and G0-like cells (MCF7 cells [1]): did not suppress; also recorded: not suppressed | production of G0-like cells (MCF7 cells [1]): not suppressed | frequency of asymmetrically dividing and G0-like cells (HCT116 cells [2]): did not suppress; also recorded: not suppressed | production of G0-like cells (HCT116 cells [2]): not suppressed

CCC(=O)N1CCN(c2ccc(-n3c(=O)ccc4cnc5ccc(-c6cnc7ccccc7c6)cc5c43)cc2C(F)(F)F)CC1 [TORIN1]
frequency of asymmetrically dividing and G0-like cells (MCF7 cells [1]): significantly reduced | frequency of asymmetrically dividing and G0-like cells (HCT116 cells [2]): significantly reduced

AZD5363
frequency of asymmetrically dividing and G0-like cells (MCF7 cells [1]): did not reduce | frequency of asymmetrically dividing and G0-like cells (HCT116 cells [2]): did not reduce
